Like-named read-outs stand apart in the source and are kept apart here.
Details: Week 12

## CCCN[C@@H]1CCc2nc(N)sc2C1 [Dexpramipexole, (6R)-2-amino-4,5,6,7-tetrahydro-6-(propylamino)benzothiazole]
<50% AEC reduction at Week 16
  Pre-BD FEF25-75 % change from baseline, Max: 47%
  Pre-BD FEF25-75 % change from baseline, Mean ± SD: 23.9 ± 28.49%
  Pre-BD FEF25-75 % change from baseline, Median: 30.3%
  Pre-BD FEF25-75 % change from baseline, Min: −12%
  Pre-BD FEF25-75 % change from baseline, Q1: 1%
  Pre-BD FEF25-75 % change from baseline, Q3: 47%
  Pre-BD FEF25-75 Observed, Max: 2050 mL/s
  Pre-BD FEF25-75 Observed, Mean ± SD: 857.5 ± 805.29 mL/s
  Pre-BD FEF25-75 Observed, Median: 515.0 mL/s
  Pre-BD FEF25-75 Observed, Min: 350 mL/s
  Pre-BD FEF25-75 Observed, Q1: 370 mL/s
  Pre-BD FEF25-75 Observed, Q3: 1345 mL/s
  Pre-BD FEF25-75 change from baseline, Max: 660 mL/s
  Pre-BD FEF25-75 change from baseline, Mean ± SD: 182.5 ± 329.18 mL/s
  Pre-BD FEF25-75 change from baseline, Median: 80.0 mL/s
  Pre-BD FEF25-75 change from baseline, Min: -90 mL/s
  Pre-BD FEF25-75 change from baseline, Q1: -20 mL/s
  Pre-BD FEF25-75 change from baseline, Q3: 385 mL/s
  Pre-BD FEV1 % change from baseline, Max: 41%
  Pre-BD FEV1 % change from baseline, Mean ± SD: 10.1 ± 21.78%
  Pre-BD FEV1 % change from baseline, Median: 4.2%
  Pre-BD FEV1 % change from baseline, Min: −9%
  Pre-BD FEV1 % change from baseline, Q1: −3%
  Pre-BD FEV1 % change from baseline, Q3: 23%
  Pre-BD FEV1 Observed, Max: 2940 mL
  Pre-BD FEV1 Observed, Mean ± SD: 1672.5 ± 886.84 mL
  Pre-BD FEV1 Observed, Median: 1440.0 mL
  Pre-BD FEV1 Observed, Min: 870 mL
  Pre-BD FEV1 Observed, Q1: 1145 mL
  Pre-BD FEV1 Observed, Q3: 2200 mL
  Pre-BD FEV1 change from baseline, Max: 860 mL
  Pre-BD FEV1 change from baseline, Mean ± SD: 200.0 ± 449.52 mL
  Pre-BD FEV1 change from baseline, Median: 45.0 mL
  Pre-BD FEV1 change from baseline, Min: -150 mL
  Pre-BD FEV1 change from baseline, Q1: -55 mL
  Pre-BD FEV1 change from baseline, Q3: 455 mL
  Pre-BD FVC % change from baseline, Max: 10%
  Pre-BD FVC % change from baseline, Mean ± SD: −3.1 ± 11.75%
  Pre-BD FVC % change from baseline, Median: −2.9%
  Pre-BD FVC % change from baseline, Min: −17%
  Pre-BD FVC % change from baseline, Q1: −12%
  Pre-BD FVC % change from baseline, Q3: 6%
  Pre-BD FVC Observed, Max: 3990 mL
  Pre-BD FVC Observed, Mean ± SD: 2942.5 ± 825.44 mL
  Pre-BD FVC Observed, Median: 2830.0 mL
  Pre-BD FVC Observed, Min: 2120 mL
  Pre-BD FVC Observed, Q1: 2300 mL
  Pre-BD FVC Observed, Q3: 3585 mL
  Pre-BD FVC change from baseline, Max: 370 mL
  Pre-BD FVC change from baseline, Mean ± SD: -52.5 ± 345.68 mL
  Pre-BD FVC change from baseline, Median: -75.0 mL
  Pre-BD FVC change from baseline, Min: -430 mL
  Pre-BD FVC change from baseline, Q1: -320 mL
  Pre-BD FVC change from baseline, Q3: 215 mL
  Pre-BD Peak Flow % change from baseline, Max: 478%
  Pre-BD Peak Flow % change from baseline, Mean ± SD: 121.7 ± 237.65%
  Pre-BD Peak Flow % change from baseline, Median: 12.2%
  Pre-BD Peak Flow % change from baseline, Min: −15%
  Pre-BD Peak Flow % change from baseline, Q1: −5%
  Pre-BD Peak Flow % change from baseline, Q3: 249%
  Pre-BD Peak Flow Observed, Max: 246 L/min
  Pre-BD Peak Flow Observed, Mean ± SD: 204.8 ± 42.39 L/min
  Pre-BD Peak Flow Observed, Median: 210.5 L/min
  Pre-BD Peak Flow Observed, Min: 152 L/min
  Pre-BD Peak Flow Observed, Q1: 171 L/min
  Pre-BD Peak Flow Observed, Q3: 239 L/min
  Pre-BD Peak Flow change from baseline, Max: 191 L/min
  Pre-BD Peak Flow change from baseline, Mean ± SD: 48.3 ± 98.44 L/min
  Pre-BD Peak Flow change from baseline, Median: 18.0 L/min
  Pre-BD Peak Flow change from baseline, Min: -34 L/min
  Pre-BD Peak Flow change from baseline, Q1: -12 L/min
  Pre-BD Peak Flow change from baseline, Q3: 108 L/min
>=50% AEC reduction at Week 16
  Pre-BD FEF25-75 % change from baseline, Max: 14%
  Pre-BD FEF25-75 % change from baseline, Mean ± SD: 6.3 ± 8.24%
  Pre-BD FEF25-75 % change from baseline, Median: 6.8%
  Pre-BD FEF25-75 % change from baseline, Min: −2%
  Pre-BD FEF25-75 % change from baseline, Q1: −2%
  Pre-BD FEF25-75 % change from baseline, Q3: 14%
  Pre-BD FEF25-75 Observed, Max: 900 mL/s
  Pre-BD FEF25-75 Observed, Mean ± SD: 640.0 ± 351.57 mL/s
  Pre-BD FEF25-75 Observed, Median: 780.0 mL/s
  Pre-BD FEF25-75 Observed, Min: 240 mL/s
  Pre-BD FEF25-75 Observed, Q1: 240 mL/s
  Pre-BD FEF25-75 Observed, Q3: 900 mL/s
  Pre-BD FEF25-75 change from baseline, Max: 50 mL/s
  Pre-BD FEF25-75 change from baseline, Mean ± SD: 20.0 ± 36.06 mL/s
  Pre-BD FEF25-75 change from baseline, Median: 30.0 mL/s
  Pre-BD FEF25-75 change from baseline, Min: -20 mL/s
  Pre-BD FEF25-75 change from baseline, Q1: -20 mL/s
  Pre-BD FEF25-75 change from baseline, Q3: 50 mL/s
  Pre-BD FEV1 % change from baseline, Max: 37%
  Pre-BD FEV1 % change from baseline, Mean ± SD: 25.3 ± 19.37%
  Pre-BD FEV1 % change from baseline, Median: 36. %
  Pre-BD FEV1 % change from baseline, Min: 3%
  Pre-BD FEV1 % change from baseline, Q1: 3%
  Pre-BD FEV1 % change from baseline, Q3: 37%
  Pre-BD FEV1 Observed, Max: 1780 mL
  Pre-BD FEV1 Observed, Mean ± SD: 1496.7 ± 448.14 mL
  Pre-BD FEV1 Observed, Median: 1730.0 mL
  Pre-BD FEV1 Observed, Min: 980 mL
  Pre-BD FEV1 Observed, Q1: 980 mL
  Pre-BD FEV1 Observed, Q3: 1780 mL
  Pre-BD FEV1 change from baseline, Max: 480 mL
  Pre-BD FEV1 change from baseline, Mean ± SD: 263.3 ± 215.02 mL
  Pre-BD FEV1 change from baseline, Median: 260.0 mL
  Pre-BD FEV1 change from baseline, Min: 50 mL
  Pre-BD FEV1 change from baseline, Q1: 50 mL
  Pre-BD FEV1 change from baseline, Q3: 480 mL
  Pre-BD FVC % change from baseline, Max: 18%
  Pre-BD FVC % change from baseline, Mean ± SD: 12.0 ± 5.17%
  Pre-BD FVC % change from baseline, Median: 11.1%
  Pre-BD FVC % change from baseline, Min: 7%
  Pre-BD FVC % change from baseline, Q1: 7%
  Pre-BD FVC % change from baseline, Q3: 18%
  Pre-BD FVC Observed, Max: 2800 mL
  Pre-BD FVC Observed, Mean ± SD: 2690.0 ± 181.93 mL
  Pre-BD FVC Observed, Median: 2790.0 mL
  Pre-BD FVC Observed, Min: 2480 mL
  Pre-BD FVC Observed, Q1: 2480 mL
  Pre-BD FVC Observed, Q3: 2800 mL
  Pre-BD FVC change from baseline, Max: 370 mL
  Pre-BD FVC change from baseline, Mean ± SD: 280.0 ± 90.00 mL
  Pre-BD FVC change from baseline, Median: 280.0 mL
  Pre-BD FVC change from baseline, Min: 190 mL
  Pre-BD FVC change from baseline, Q1: 190 mL
  Pre-BD FVC change from baseline, Q3: 370 mL
  Pre-BD Peak Flow % change from baseline, Max: 82%
  Pre-BD Peak Flow % change from baseline, Mean ± SD: 31.8 ± 45.54%
  Pre-BD Peak Flow % change from baseline, Median: 21.9%
  Pre-BD Peak Flow % change from baseline, Min: −8%
  Pre-BD Peak Flow % change from baseline, Q1: −8%
  Pre-BD Peak Flow % change from baseline, Q3: 82%
  Pre-BD Peak Flow Observed, Max: 285 L/min
  Pre-BD Peak Flow Observed, Mean ± SD: 208.7 ± 66.53 L/min
  Pre-BD Peak Flow Observed, Median: 178.0 L/min
  Pre-BD Peak Flow Observed, Min: 163 L/min
  Pre-BD Peak Flow Observed, Q1: 163 L/min
  Pre-BD Peak Flow Observed, Q3: 285 L/min
  Pre-BD Peak Flow change from baseline, Max: 128 L/min
  Pre-BD Peak Flow change from baseline, Mean ± SD: 48.7 ± 72.45 L/min
  Pre-BD Peak Flow change from baseline, Median: 32.0 L/min
  Pre-BD Peak Flow change from baseline, Min: -14 L/min
  Pre-BD Peak Flow change from baseline, Q1: -14 L/min
  Pre-BD Peak Flow change from baseline, Q3: 128 L/min

Reference: patent US20250352520A1, “USE OF DEXPRAMIPEXOLE FOR THE TREATMENT OF EOSINOPHILIC COPD” (Areteia Therapeutics, Inc., priority 2024, published 2025)
